Test results published in patent US20240374735A1, “AROMATIC BORON-CONTAINING COMPOUNDS AND INSULIN ANALOGS” (PROTOMER TECHNOLOGIES INC., priority 2020, published 2024).

Tested on: diabetic B6 mice (streptozocin)
Test: Glucose challenge in STZ diabetic mice
Assay type: in vivo
Conditions: injected subcutaneously or intraperitoneally, glucose challenge one hour post-injection
Method: Diabetes was induced in 12-week-old B6 mice using streptozocin (STZ) treatment. Three weeks after the final STZ treatment, blood glucose of the mice was sampled from lateral tail vein to confirm diabetes. Mice with blood glucose of >200 mg/dl were deemed to be diabetic and fasted for 1-6 hours prior to injection. Human insulin and a compound of Formula I in sterile phosphate buffered saline, pH 7.4 were injected either subcutaneously via neck scruff or intraperitoneally, depending on the experiment. Blood glucose was sampled with a glucometer via lateral tail vein at 15-minute intervals. After one hour of initial stabilization of blood glucose levels post-insulin injection, mice were challenged with an intraperitoneal injection of glucose (e.g., 2 g/kg, 4 g/kg, or 6 g/kg; the actual dose depends on the example and experiment) in sterile phosphate buffered saline.

Which “Blood glucose response after intraperitoneal glucose bolus” value does the source give for “human insulin: Human insulin, comparator in the mouse experiments; biosynthetic human insulin (BHI) in the clamp” here?
Its value is “did not activate in a glucose-dependent manner”.
